Patent US6117841A, “Substituted peptidylamine calcium channel blockers” (Warner-Lambert Company, priority 1999, dated 2000)
Read-outs that look alike come from different tables or passages of the source. One block for each molecule: values may come before it.

Target: T1, N-type Ca^2+ Channel (Homo sapiens, UniProt Q00975)
T1 construct: host or cells: IMR-32 cells differentiated with dibutyryl cAMP and bromodeoxyuridine
Assay: Measurement of N-type Ca2+ channel blocking potencies in IMR-32 cells using the fluorescent Ca2+ indicator Indo-1
Format: cell-based
Method: Measurement of N-type Ca^2+ Channel Blocking Potencies of Compounds in IMR-32 Cells Using the Fluorescent Ca^2 + Indicator Indo-1
IMR-32 cells are a human tumoral cell line of neural origin. […] Calcium flux into these cells may be induced by stimulation with elevated potassium concentrations. The L-channel component of calcium flux may be blocked by adding 5 μM nitrendipine. The remaining component of calcium entry into the IMR-32 cells is due to calcium flux through N-type calcium channels. Intracellular calcium concentrations are measured using the fluorescent calcium indicator Indo-1. The effect of drug concentration on calcium uptake is studied.
The IMR-32 cell line was obtained from the American Type Culture Collection (Rockville, Md.). Cells were grown in Eagle's Minimum Essential Medium with Earle's salts supplemented with 10% fetal bovine serum, 2 mM L-Gln and antibiotic/antimycotic mixture (Gibco). At approximately 80% confluency, differentiation was induced by the addition of 1 mM dibutyryl cAMP and 2.5 μM bromodeoxyuridine to the medium. After 7 to 13 days of differentiation, cells were detached using 0.5 mM EDTA and loaded with 5 μM Indo-1 acetoxymethyl ester (Molecular Probes, Eugene, Oreg.) at 30° C. for 45 minutes. Loaded cells were washed twice, resuspended (~10^7 cells/mL) in assay buffer (10 mM HEPES/Tris pH 7.4 in Hank's Balanced Salt Solution without bicarbonate or phenol red containing 0.5% bovine serum albumin) and kept on ice until use. Fluorescence measurements were carried out in a Photon Technology International (PTI, South Brunswick, N.J.) Model RF-F3004 spectrofluorometer with dual emission monochromators using excitation at 350 nm and emission at 400 and 490 nm. The instrument was equipped with a thermostated cuvette holder with stirring capabilities as well as with a computer-controlled pump which allowed for reagent addition during measurement. Instrument control and data collection was done by PTI's OSCAR software running on an IBM compatible computer. Different concentrations of the test compounds (60 μL in dimethyl sulfoxide) were added to 5.94 mL of assay buffer containing approximately 3×10^6 loaded cells, and 5 μM nitrendipine (in 30 μL EtOH) to block L-type Ca^2+ channels. Samples were incubated for 10 minutes at 30° C. and then aliquoted into three 10×10 mm disposable acrylic cuvettes. Emission signals at 400 and 490 nm were acquired from each cuvette at 30° C. for 50 seconds. At 20 seconds after the start of reading, cells were depolarized by the addition of 160 μL of stimulation solution (1 M KCl, 68 mM CaCl2) to the cuvette via the computer-controlled pump. Ratio of dual emission signals (400 nm/ 490 nm), which is proportional to intracellular Ca^2+ concentration, was plotted against time, and the difference between maximal response after stimulation and basal value (before stimulation) was determined. Values obtained in this way were plotted as a function of drug concentration. IC50 values of test compounds were calculated by fitting a four-parameter logistic function to the data using the least squares method.

[1] = 1 μM, IMR-32 cells, 5 μM nitrendipine
[2] = 10 μM, IMR-32 cells, 5 μM nitrendipine
[3] = IMR-32 cells, K+ depolarization, 5 μM nitrendipine to block L-type channels, read-out: IMR 32 IC50
[4] = IMR-32 cells, 5 μM nitrendipine, Examples 116-140, read-out: IMR 32% of Blockade @

T1 sequence (Q00975 whole entry): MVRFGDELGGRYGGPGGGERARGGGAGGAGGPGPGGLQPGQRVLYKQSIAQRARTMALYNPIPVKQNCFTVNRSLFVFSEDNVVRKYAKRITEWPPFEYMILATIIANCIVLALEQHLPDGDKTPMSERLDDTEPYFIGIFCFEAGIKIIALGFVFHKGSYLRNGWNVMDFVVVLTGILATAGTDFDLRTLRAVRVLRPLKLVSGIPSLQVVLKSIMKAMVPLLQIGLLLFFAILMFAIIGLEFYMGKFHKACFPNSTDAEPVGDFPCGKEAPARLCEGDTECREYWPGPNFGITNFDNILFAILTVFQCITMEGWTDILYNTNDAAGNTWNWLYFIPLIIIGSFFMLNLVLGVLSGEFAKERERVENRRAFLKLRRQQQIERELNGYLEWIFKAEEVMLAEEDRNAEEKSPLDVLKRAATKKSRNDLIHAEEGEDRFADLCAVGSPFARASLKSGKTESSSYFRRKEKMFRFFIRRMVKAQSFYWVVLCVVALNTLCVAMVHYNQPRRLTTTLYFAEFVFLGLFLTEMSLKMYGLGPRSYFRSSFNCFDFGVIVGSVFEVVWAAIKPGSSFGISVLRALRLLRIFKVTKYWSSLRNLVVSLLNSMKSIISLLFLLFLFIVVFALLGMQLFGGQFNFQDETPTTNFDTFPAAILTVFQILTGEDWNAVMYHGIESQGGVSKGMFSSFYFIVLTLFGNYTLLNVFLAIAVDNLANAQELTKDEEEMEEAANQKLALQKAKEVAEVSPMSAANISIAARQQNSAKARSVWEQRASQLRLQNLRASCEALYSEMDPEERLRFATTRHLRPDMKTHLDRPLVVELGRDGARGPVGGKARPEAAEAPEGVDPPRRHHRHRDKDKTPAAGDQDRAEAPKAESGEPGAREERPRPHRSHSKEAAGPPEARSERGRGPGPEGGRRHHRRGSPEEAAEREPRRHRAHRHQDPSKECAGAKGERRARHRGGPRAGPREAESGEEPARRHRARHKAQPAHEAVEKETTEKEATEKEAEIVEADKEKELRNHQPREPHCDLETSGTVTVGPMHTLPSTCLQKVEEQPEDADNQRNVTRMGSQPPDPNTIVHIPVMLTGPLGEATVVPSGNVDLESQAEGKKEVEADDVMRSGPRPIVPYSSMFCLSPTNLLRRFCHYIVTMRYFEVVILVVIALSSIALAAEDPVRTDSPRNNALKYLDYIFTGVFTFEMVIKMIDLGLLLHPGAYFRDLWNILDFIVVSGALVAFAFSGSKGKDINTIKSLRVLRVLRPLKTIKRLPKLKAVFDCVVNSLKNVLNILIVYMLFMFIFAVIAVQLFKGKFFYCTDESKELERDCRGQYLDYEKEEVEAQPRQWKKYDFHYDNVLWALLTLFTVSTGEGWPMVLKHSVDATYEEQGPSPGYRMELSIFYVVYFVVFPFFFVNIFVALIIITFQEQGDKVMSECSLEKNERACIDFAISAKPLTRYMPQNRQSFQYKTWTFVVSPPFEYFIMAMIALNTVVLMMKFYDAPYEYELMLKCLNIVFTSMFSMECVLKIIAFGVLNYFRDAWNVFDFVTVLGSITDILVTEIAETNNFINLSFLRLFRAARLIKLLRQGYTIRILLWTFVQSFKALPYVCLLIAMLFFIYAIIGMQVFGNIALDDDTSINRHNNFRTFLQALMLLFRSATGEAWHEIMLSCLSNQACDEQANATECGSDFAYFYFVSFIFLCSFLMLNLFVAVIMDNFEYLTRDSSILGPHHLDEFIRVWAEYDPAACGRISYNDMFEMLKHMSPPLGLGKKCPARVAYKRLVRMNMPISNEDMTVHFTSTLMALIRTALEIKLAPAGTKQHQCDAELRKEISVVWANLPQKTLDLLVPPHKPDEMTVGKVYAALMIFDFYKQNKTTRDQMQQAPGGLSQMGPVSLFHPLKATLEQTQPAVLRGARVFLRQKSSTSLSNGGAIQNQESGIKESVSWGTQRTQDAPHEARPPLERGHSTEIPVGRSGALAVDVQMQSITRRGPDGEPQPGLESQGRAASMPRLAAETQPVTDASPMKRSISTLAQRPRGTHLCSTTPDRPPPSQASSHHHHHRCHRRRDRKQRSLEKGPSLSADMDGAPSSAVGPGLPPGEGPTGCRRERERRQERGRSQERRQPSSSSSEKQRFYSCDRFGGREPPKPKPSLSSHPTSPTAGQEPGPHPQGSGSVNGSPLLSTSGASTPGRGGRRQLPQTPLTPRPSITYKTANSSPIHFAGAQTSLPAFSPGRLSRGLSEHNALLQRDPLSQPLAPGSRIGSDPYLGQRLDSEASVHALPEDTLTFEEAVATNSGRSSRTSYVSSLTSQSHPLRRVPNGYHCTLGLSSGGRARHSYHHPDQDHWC
T1 sequence (P54284 whole entry partner): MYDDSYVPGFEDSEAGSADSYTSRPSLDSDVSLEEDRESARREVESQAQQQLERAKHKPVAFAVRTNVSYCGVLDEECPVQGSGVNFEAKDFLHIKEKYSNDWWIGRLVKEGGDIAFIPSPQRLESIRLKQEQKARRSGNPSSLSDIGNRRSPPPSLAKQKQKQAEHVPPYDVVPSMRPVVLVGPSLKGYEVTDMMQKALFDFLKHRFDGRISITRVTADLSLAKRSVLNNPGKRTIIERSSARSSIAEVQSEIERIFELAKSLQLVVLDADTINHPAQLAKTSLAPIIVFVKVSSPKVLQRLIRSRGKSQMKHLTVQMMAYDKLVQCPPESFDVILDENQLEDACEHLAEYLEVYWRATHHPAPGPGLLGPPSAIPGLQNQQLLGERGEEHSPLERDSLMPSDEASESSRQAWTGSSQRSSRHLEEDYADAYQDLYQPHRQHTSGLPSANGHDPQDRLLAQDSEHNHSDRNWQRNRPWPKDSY
T1 sequence (P54289 25-946 partner limits assumed): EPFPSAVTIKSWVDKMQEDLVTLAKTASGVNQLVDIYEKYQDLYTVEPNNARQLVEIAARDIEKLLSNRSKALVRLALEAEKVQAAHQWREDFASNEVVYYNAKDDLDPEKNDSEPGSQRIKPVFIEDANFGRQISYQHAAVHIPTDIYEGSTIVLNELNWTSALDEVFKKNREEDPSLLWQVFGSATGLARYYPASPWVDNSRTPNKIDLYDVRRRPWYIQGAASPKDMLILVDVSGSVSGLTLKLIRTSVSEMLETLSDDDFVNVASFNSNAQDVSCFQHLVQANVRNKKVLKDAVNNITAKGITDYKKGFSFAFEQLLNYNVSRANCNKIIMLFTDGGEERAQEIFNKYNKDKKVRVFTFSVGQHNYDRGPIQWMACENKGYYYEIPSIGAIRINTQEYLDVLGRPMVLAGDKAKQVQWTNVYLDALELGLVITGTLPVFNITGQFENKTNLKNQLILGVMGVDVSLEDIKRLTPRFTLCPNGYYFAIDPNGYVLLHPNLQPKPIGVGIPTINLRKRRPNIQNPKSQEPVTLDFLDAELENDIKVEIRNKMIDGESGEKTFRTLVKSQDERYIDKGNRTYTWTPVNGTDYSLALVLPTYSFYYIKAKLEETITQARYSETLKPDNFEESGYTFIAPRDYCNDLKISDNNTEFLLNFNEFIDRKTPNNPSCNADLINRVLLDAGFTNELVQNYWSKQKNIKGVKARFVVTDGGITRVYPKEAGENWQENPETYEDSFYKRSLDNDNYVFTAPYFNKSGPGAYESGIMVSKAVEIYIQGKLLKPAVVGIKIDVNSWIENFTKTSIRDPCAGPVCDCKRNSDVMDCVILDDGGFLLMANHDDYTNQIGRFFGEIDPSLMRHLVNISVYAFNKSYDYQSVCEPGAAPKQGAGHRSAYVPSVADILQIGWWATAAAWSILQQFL
T1 sequence (P54289 947-1103 partner limits assumed): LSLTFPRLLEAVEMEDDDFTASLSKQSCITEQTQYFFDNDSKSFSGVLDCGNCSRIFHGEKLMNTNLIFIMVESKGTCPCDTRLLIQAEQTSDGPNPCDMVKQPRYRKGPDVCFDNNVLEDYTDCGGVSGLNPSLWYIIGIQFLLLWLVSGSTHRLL

IC50 [3]: 4.4 µM
Molecule: CCOC(=O)CN(C)[C@@H](CC(C)C)C(=O)N[C@@H](Cc1ccc(OCc2ccccc2)cc1)C(=O)NC(C)(C)C (relative stereo) [Example 96, [S-(R*,R*)]-({1-[2-(4-Benzyloxy-phenyl)-1-tert-butylcarbamoyl-ethylcarbamoyl]-3-methyl-butyl}-methyl-amino)-acetic acid ethyl ester]

IC50 [4]: 1.6 µM
Molecule: CC(C)C[C@@H](C(=O)N[C@@H](Cc1ccc(OCc2ccccc2)cc1)C(=O)NCCCn1ccnc1)N(C)C (relative stereo) [Example 134, [S-(R*,R*)]-2-Dimethylamino-4-methyl-pentanoic acid [2-(4-benzyloxy-phenyl)-1-(3-imidazol-1-yl-propylcarbamoyl)-ethyl]-amide]

IC50 [4]: 6.5 µM
Molecule: [S-(R*,R*)]-4-Methyl-2-(tetrahydropyran-4-yl-amino)-pentanoic acid [2-(4-benzyloxy-phenyl)-1-(2-pyrrolidine-1-yl-ethylcarbamoyl]-amide [Example 130]

IC50 [4]: 14 µM
Molecule: CC(C)CC(C(=O)NC(Cc1ccc(OCc2ccccc2)cc1)C(=O)NCCCn1ccnc1)N1CCOCC1 (stereo not drawn) [Example 121, [S-(R*,R*)]-4-Methyl-2-morpholin-4-yl-pentanoic acid [2-(4-benzyloxy-phenyl)-1-(3-imidazol-1-yl-propylcarbamoyl)-ethyl]-amide]

IC50 [4]: 7.5 µM
Molecule: CC(C)C[C@H](NC1CCOCC1)C(=O)N[C@@H](Cc1ccc(OCc2ccccc2)cc1)C(=O)NCCN1CCOCC1 (relative stereo) [Example 127, [S-(R*,R*)]-4-Methyl-2-(tetrahydropyran-4-yl-amino)-pentanoic acid [2-(4-benzyloxy-phenyl)-1-(2-morpholin4-yl-ethylcarbamoyl)-ethyl]-amide]

IC50 [3]: 3.1 µM
Molecule: CC(C)C[C@@H](C(=O)N[C@@H](Cc1ccc(OCc2ccccc2)cc1)C(=O)NC(C)(C)C)N(C)C1CCOCC1 (relative stereo) [Example 87, [S-(R*,R*)]-4-Methyl-2-[methyl-(tetrahydro-pyran-4-yl)-amino]-pentanoic acid [2-(4-benzyloxy-phenyl)-1-tert-butylcarbamoyl-ethyl]-amide]

IC50 [3]: 0.24 µM
Molecule: CC(C)CCN[C@@H](CC(C)C)C(=O)N[C@@H](Cc1ccc(OCc2ccccc2)cc1)C(=O)NC(C)(C)C (relative stereo) [Example 105, [S-(R*,R*)]-4-Methyl-2-(3-methyl-butylamino)-pentanoic acid [2-(4-benzyloxy-phenyl)-1-tert-butylcarbamoyl-ethyl]-amide]

More lines, now with the values behind:

Molecule: CC(C)CCN(C)[C@@H](CC(C)C)C(=O)N[C@@H](Cc1ccc(OCc2ccccc2)cc1)C(=O)NCCN1CCCCC1 (relative stereo) [Example 9, [S-(R*,R*)]-4-Methyl-2-[methyl-(3-methyl-butyl)-amino]-pentanoic acid [2-(4-benzyloxy-phenyl)-1-(2-piperidin-1-yl-ethylcarbamoyl)-ethyl]-amide]
IMR 32 % of Blockade @ 1 μM [1]: 60%
IMR 32 % of Blockade @ 10 μM [2]: 89%

Molecule: CN[C@@H](CC(C)C)C(=O)N[C@@H](Cc1ccc(OCc2ccccc2)cc1)C(=O)N1CCN(Cc2ccccc2)CC1 (relative stereo) [Example 43, [S-(R*,R*)]-4-Methyl-2-methylamino-pentanoic acid [1-(4-benzyloxy-benzyl)-2-(4-benzyl-piperazin-1-yl)-2-oxo-ethyl]-amide]
IMR 32 % of Blockade @ 1 μM [1]: 51%
IMR 32 % of Blockade @ 10 μM [2]: 96%

Molecule: CC(C)C[C@@H](C(=O)N[C@@H](Cc1ccc(OCc2ccccc2)cc1)C(=O)NCCNCc1ccccc1)N1CCOCC1 (relative stereo) [Example 68, [S-(R*,R*)]-4-Methyl-2-morpholin4-yl-pentanoic acid [1-(2-benzylamino-ethylcarbamoyl)-2-(4-benzyloxy-phenyl)-ethyl]-amide]
IC50 [3]: 1.1 µM

Molecule: CCC(CO)(CO)NC(=O)C(Cc1ccc(OCc2ccccc2)cc1)NC(=O)C(CC(C)C)NC1CCOCC1 (stereo not drawn) [Example 74, [S-(R*,R*)]-4-Methyl-2-(tetrahydro-pyran-4-ylamino)-pentanoic acid [2-(4-benzyloxy-phenyl)-1-(1,1-bis-hydroxymethyl-propylcarbamoyl)-ethyl]-amide]
IC50 [3]: 2.6 µM

Molecule: CC(C)C[C@H](NC1CCOCC1)C(=O)N[C@@H](Cc1ccc(OCc2ccccc2)cc1)C(=O)N1CCSCC1 (relative stereo) [Example 72, [S-(R*,R*)]-4-Methyl-2-(tetrahydro-pyran-4-ylamino)-pentanoic acid [1-(4-benzyloxy-benzyl)-2-oxo-2-thiomorpholin-4-yl-ethyl]-amide]
IC50 [3]: 1.2 µM

Molecule: CC(C)=CCN[C@@H](CC(C)C)C(=O)N[C@@H](Cc1ccc(OCc2ccccc2)cc1)C(=O)N1CCN(Cc2ccccc2)CC1 (relative stereo) [Example 53, [S-(R*,R*)]-4-Methyl-2-(3-methyl-but-2-enylamino)-pentanoic acid [1-(4-benzyloxy-benzyl)-2-(4-benzyl-piperazin-1-yl)-2-oxo-ethyl]-amide]
IC50 [3]: 0.7 µM

Molecule: CC(C)C[C@@H](C(=O)N[C@@H](Cc1ccc(OCc2ccccc2)cc1)C(=O)N1CCN(Cc2ccccc2)CC1)N(C)C1CCCCC1 (relative stereo) [Example 22, [S-(R*,R*)]-2-(Cyclohexyl-methyl-amino)-4-methyl-pentanoic acid [1-(4-benzyloxy-benzyl)-2-(4-benzyl-piperazin-1-yl)-2-oxo-ethyl]-amide]
IMR 32 % of Blockade @ 1 μM [1]: 57%
IMR 32 % of Blockade @ 10 μM [2]: 87%

Molecule: CC(C)CC(C(=O)NC(Cc1ccc(OCc2ccccc2)cc1)C(=O)NC(C)(C)C)N(C)Cc1ccccc1 (stereo not drawn) [Example 54, [S-(R*,R*)]-2-(Benzyl-methyl-amino)-4-methyl-pentanoic acid [2-(4-benzyloxy-phenyl)-1-tert-butylcarbamoyl-ethyl]-amide]
IC50 [3]: 0.36 µM

Molecule: CC(C)CC(C(=O)NC(Cc1ccc(OCc2ccccc2)cc1)C(=O)N1CCN(C)CC1)N(C)CC1CCCCC1 (stereo not drawn) [Example 30, [S-(R*,R*)]-2-(Cyclohexylmethyl-methyl-amino)-4-methyl-pentanoic acid [1-(4-benzyloxy-benzyl)-2-(4-methyl-piperazin-1-yl)-2-oxo-ethyl]-amide]
IC50 [3]: 1.2 µM

Molecule: CCC(COC)NC(=O)[C@H](Cc1ccc(OCc2ccccc2)cc1)NC(=O)[C@H](CC(C)C)NC1CCOCC1 (relative stereo) [Example 75, [S-(R*,R*)]-4-Methyl-2-(tetrahydro-pyran-4-ylamino)-pentanoic acid [2-(4-benzyloxy-phenyl)-1-(1-methoxymethyl-propylcarbamoyl)-ethyl]-amide]
IC50 [3]: 2.4 µM

Molecule: CC(C)C[C@@H](C(=O)N[C@@H](Cc1ccc(OCc2ccccc2)cc1)C(=O)N1CCN(C)CC1)N(C)C (relative stereo) [Example 6, [S-(R*,R*)]-2-Dimethylamino-4-methyl-pentanoic acid [1-(4-benzyloxy-benzyl)-2-(4-methyl-piperazin-1-yl)-2-oxo-ethyl]-amide]
IMR 32 % of Blockade @ 1 μM: 16%
IMR 32 % of Blockade @ 10 μM: 31%

Molecule: CC(C)C[C@@H](C(=O)N[C@@H](Cc1ccc(OCc2ccccc2)cc1)C(=O)N1CCN(C)CC1)N(C)C1CCCCC1 (relative stereo) [Example 24, [S-(R*,R*)]-2-(Cyclohexyl-methyl-amino)4-methyl-pentanoic acid [1-(4-benzyloxy-benzyl)-2-(4-methyl-piperazin-1-yl)-2-oxo-ethyl]-amide]
IMR 32 % of Blockade @ 1 μM [1]: 32%
IMR 32 % of Blockade @ 10 μM [2]: 84%

Molecule: CC(C)C[C@H](NCc1ccccc1)C(=O)N[C@@H](Cc1ccc(OCc2ccccc2)cc1)C(=O)OC(C)(C)C (relative stereo) [Example 33, [S-(R*,R*)]-2-(2-Benzylamino-4-methyl-pentanoylamino)-3-(4-benzyloxy-phenyl)-propionic acid tert-butyl ester]
IMR 32 % of Blockade @ 1 μM [1]: 52%
IMR 32 % of Blockade @ 10 μM [2]: 95%

Molecule: CC(C)C[C@H](NCc1ccc(C(C)(C)C)cc1)C(=O)N[C@@H](Cc1ccc(OCc2ccccc2)cc1)C(=O)OC(C)(C)C (relative stereo) [Example 32, [S-(R*,R*)]-3-(4-Benzyloxy-phenyl)-2-[2-(4-tert-butyl-benzylamino)-4-methyl-pentanoylamino]-propionic acid tert-butyl ester]
IC50 [3]: 0.25 µM
